Test results as given in ChEMBL document CHEMBL3352084, “Bioactive compounds from the insect Aspongopus chinensis” (Bioorg Med Chem Lett, 2014).
Activity calls are given as the source filed them. No cut-off for these calls is given here.

Legend:
[1] = molecular target: Prostaglandin G/H synthase 2 (Homo sapiens, UniProt P35354); experiment: Inhibition of human recombinant COX2 pre-incubated for 15 mins before arachidonic acid addition by fluorescence micro plate reader method
Rattus norvegicus [2] = experiment: Inhibition of high glucose-induced collagen 4 production in rat renal mesangial cells dosed for 1 hr before 30 mM D-glucose stimulation for 24 hrs by ELISA; type: functional
Rattus norvegicus [3] = experiment: Inhibition of high glucose-induced fibronectin production in rat renal mesangial cells dosed for 1 hr before 30 mM D-glucose stimulation for 24 hrs by ELISA; type: functional
Rattus norvegicus [4] = experiment: Inhibition of high glucose-induced IL6 production in rat renal mesangial cells dosed for 1 hr before 30 mM D-glucose stimulation for 24 hrs by ELISA; type: functional
[5] = Retention time of the compound by […] method; type: physicochemical

Prostaglandin G/H synthase 2, sequence (P35354 whole entry, looked up): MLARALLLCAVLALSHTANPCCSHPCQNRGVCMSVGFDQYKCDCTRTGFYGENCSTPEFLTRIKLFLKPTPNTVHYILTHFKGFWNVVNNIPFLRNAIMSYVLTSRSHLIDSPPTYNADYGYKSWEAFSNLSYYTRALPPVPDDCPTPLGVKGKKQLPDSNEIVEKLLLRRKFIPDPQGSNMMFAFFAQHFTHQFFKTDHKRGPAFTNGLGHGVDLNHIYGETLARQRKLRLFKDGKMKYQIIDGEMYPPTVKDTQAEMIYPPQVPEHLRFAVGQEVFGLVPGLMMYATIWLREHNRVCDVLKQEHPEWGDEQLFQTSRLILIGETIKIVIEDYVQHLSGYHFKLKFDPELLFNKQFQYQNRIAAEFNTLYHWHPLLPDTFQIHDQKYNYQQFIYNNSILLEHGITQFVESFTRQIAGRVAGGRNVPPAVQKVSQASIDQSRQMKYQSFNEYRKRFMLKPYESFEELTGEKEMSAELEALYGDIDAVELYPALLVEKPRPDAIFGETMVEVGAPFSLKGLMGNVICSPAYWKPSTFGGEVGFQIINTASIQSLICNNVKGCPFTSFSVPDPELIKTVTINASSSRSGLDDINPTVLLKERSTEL

SMILES | IC50 [1] [µM] | inhibition (Rattus norvegicus [2]) | inhibition (Rattus norvegicus [3]) | inhibition (Rattus norvegicus [4]) | Retention_time [5] [min]
CC(=O)NCCc1ccc(O)c(O)c1 | 18.9 |  |  |  | 
CC(C)C[C@@H]1NC(=O)[C@H](Cc2c[nH]c3ccccc23)NC1=O |  | Active | Active | Active | 
CC(=O)/C=C/c1ccc(O)c(O)c1 | 22.2 |  |  |  | 
CC(=O)NC[C@@H](OC[C@H](O)CO)c1ccc(O)c(O)c1 | 117 |  |  |  | 
CCc1nc(C)ccc1O |  | Active | Active | Active | 
CC(=O)N/C=C\c1ccc2c(c1)OC(c1ccc(O)c(O)c1)C(NC(C)=O)O2 (configuration not stated) | 6.5 | Active | Active | Active | 
C/C(=C/CCC(C)c1cc(O[C@@H]2O[C@H](CO)[C@@H](O)[C@H](O)[C@H]2O)c(O)cc1C)C(=O)O (some centres not stated) |  |  |  |  | 25.461
CC(=O)N/C=C\c1ccc2c(c1)OC(NC(C)=O)C(c1ccc(O)c(O)c1)O2 (configuration not stated) |  | Active | Active | Active | 
